Bounds are passed on as bounds.

This assay deals with T1, USP5 (Homo sapiens, UniProt P45974).
T1 sequence (P45974 1-858): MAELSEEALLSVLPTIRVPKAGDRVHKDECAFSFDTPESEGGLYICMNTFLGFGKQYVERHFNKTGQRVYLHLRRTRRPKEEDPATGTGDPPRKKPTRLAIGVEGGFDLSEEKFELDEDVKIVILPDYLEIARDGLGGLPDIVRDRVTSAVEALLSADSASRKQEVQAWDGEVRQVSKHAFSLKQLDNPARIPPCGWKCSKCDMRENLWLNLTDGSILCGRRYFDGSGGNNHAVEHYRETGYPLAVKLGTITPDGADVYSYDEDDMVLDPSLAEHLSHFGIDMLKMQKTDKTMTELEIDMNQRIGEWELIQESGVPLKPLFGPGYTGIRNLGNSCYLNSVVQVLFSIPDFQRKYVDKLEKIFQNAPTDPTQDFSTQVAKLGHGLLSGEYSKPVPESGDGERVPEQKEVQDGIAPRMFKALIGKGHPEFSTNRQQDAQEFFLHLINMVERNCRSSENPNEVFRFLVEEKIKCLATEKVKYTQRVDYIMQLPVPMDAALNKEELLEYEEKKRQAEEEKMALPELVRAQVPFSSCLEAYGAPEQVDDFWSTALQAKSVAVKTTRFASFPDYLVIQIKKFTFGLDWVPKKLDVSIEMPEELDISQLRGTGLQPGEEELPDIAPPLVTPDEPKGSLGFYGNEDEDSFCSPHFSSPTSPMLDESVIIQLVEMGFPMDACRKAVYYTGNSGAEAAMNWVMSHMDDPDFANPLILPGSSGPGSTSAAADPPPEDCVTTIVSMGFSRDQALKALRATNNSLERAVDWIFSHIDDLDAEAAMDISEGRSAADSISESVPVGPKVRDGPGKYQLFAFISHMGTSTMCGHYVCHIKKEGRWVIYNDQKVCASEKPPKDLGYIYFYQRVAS
As to the kind of experiment: USP5 activity assay (Ub-AMC substrate). Conditions: Ub-AMC 300 nM, USP5 300 pM. The assay is classed as biochemical. Here is the method:
USP5 was diluted in USP buffer (50 mM Tris HCl; 0.5 mM EDTA; 5 mM DTT; 0.01% Triton X-100; Bovine Serum Albumin 0.05 mg·ml^−1 pH 7.6). Compounds stocks (100 mM) were stored at −20° C. in DMSO. Compounds were tested at different concentrations: from 200 μM to 91 nM.
Reactions were performed as duplicates in Black 384 well plates (small volume microplates; Greiner; 10 μl final reaction volume). The substrate concentration for USP5 was 300 nM Ub-AMC (Boston Biochem). The concentrations of the enzyme (USP5) in specificity assays was 300 pM. The concentrations were determined in order to perform specificity assays under initial velocities at fixed substrate concentration. Compounds were pre-incubated with enzymes for 30 minutes at 25° C. Reactions were initiated by addition of substrate to the plates containing the enzymes (+/− compounds) diluted in assay buffer. Reactions were incubated for 60 minutes at 37° C. Reactions were stopped by adding acetic acid (100 mM final). Readings were performed on a Pherastar Fluorescent Reader (BMG). λ Emission 380 nm; λ Excitation=460 nm. Data (mean values +/− standard deviation) were analyzed as % of control (no compound) and plotted as percentage versus the Log of the compound concentration using GraphPad (Prism). Data were fitted to a sigmoidal model (variable slope).
`CN1CCCC1CCNC(=O)c1ccc2c(Cl)c3c(nc2c1)CCCC3` (stereo not drawn) [Example 17, 9-chloro-N-(2-(1-methylpyrrolidin-2-yl)ethyl)-5,6,7,8-tetrahydroacridino-3-carboxamide] had an IC50 greater than 200 µM.
Turning to `O=C(NCc1cccc(CN2CCCC2)c1)c1ccc2c(Cl)c3c(nc2c1)CCCC3` [Example 18, 9-chloro-N-(3-(pyrrolidin-1-ylmethyl)benzyl)-5,6,7,8-tetrahydroacridine-3-carboxamide], the IC50 is greater than 200 µM.
Compound `O=C(Nc1cccc(CN2CCCC2)c1)c1ccc2c(Cl)c3c(nc2c1)CCCC3` [Example 19, 9-chloro-N-(3-(pyrrolidin-1-ylmethyl)phenyl)-5.6,7,8-tetrahydroacridine-3-carboxamide] gave an IC50 greater than 200 µM.
Under `CC1CCCCN1CCCNC(=O)c1ccc2c(Cl)c3c(nc2c1)CCCC3` (stereo not drawn) [Example 20, 9-chloro-N-(3-(2-methylpiperidin-1-yl)propyl)-516,7,8-tetrahydroacridine-3-carboxamide] stands greater than 200 µM; under `O=C(NCc1ccc(CN2CCCC2)cc1)c1ccc2c(Cl)c3c(nc2c1)CCCC3` [Example 21, 9-chloro-N-(4-(pyrrolidin-1-ylmethyl)benzyl)-5,6,7,8-tetrahydroacridine-3-carboxamide], greater than 200 µM; under `COc1ccc(CN2CCC(CNC(=O)c3ccc4c(Cl)c5c(nc4c3)CCCC5)CC2)cc1` [Example 22, 9-chloro-N-((1-(4-methoxybenzyl)piperidin-4-yl)methyl)-5,6,7,8-tetrahydroacridine-3-carboxamide], greater than 200 µM.
Under `CN(C)c1ccc(CN2CCC(CNC(=O)c3ccc4c(Cl)c5c(nc4c3)CCCC5)CC2)cc1` [Example 23] stands greater than 200 µM; under `O=C(NCC1CCNCC1)c1ccc2c(Cl)c3c(nc2c1)CCCC3` [Example 24, 9-chloro-N-((piperidin-4-yl)methyl)-5,6,7,8-tetrahydroacridine-3-carboxamide], greater than 200 µM.
Under `O=C(NCC(CN1CCCC1)C(O)c1ccccc1)c1ccc2c(Cl)c3c(nc2c1)CCCC3` (stereo not drawn) [Example 25, 9-chloro-N-(3-hydroxy-3-phenyl-2-pyrrolidin-1-ylmethylpropyl)-5,6,7,8-tetrahydroacridine-3-carboxamide] stands greater than 200 µM.

The term IC50 denotes the concentration that inhibits the measured activity by half. A higher IC50 goes with weaker potency.

The values are drawn from patent publication US9328093B2, “Selective inhibitors of ubiquitin specific protease 7, the pharmaceutical compositions thereof and their therapeutic applications” (HYBRIGENICS SA, priority 2010, dated 2016).
